Results: patent US8765730B2 (Hoffmann-La Roche Inc, priority 2010, dated 2014)

molecular target: T1, human GPBAR1 receptor (Homo sapiens, UniProt Q8TDU6); assay: functional cAMP assay in CHO-dhfr(minus) cells expressing human GPBAR1 receptors; assay type: cell-based; conditions: human EC50, functional cAMP assay, 30 min at 30° C.
T1 construct: expressed in transfected cells
T1 sequence (Q8TDU6 1-330): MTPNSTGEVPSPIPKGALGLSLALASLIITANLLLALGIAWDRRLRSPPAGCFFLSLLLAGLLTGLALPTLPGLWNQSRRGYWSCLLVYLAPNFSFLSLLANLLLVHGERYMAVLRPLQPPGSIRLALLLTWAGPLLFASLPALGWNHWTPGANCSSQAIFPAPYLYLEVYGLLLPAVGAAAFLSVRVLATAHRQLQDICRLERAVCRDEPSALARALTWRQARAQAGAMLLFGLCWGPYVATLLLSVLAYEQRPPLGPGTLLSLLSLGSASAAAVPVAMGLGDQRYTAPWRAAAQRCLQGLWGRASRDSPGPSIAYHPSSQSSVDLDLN
Summary of the method: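 Agonist cAMP read-out: stable GPBAR1 CHO-dhfr− clone, 30 min compound exposure at 30° C following 30 min IBMX (1 mM) preincubation in Krebs Ringer bicarbonate. Time-resolved energy-transfer detection gives EC50; parental CHO cells serve as counter-screen.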

Row | SMILES | EC50
1 | Cc1cc(/C(C[C@H](c2ccc(C(=O)N(C)C)cc2)c2ccccc2C)=N/O)ccn1 [Example 277, 4-[(R)-3-[(E)-Hydroxyimino]-3-(2-methyl-pyridin-4-yl)-1-o-tolyl-propyl]-N,N-dimethyl-benzamide] | 21 nM
2 | O=C(O)c1cccc(-c2ccc(C(C/C(=N\O)c3ccncc3)c3ccccc3)cc2)c1 (stereo not shown) [Example 76, 4′-{3-[(E)-Hydroxyimino]-1-phenyl-3-pyridin-4-yl-propyl}-biphenyl-3-carboxylic acid] | 490 nM
3 | Cc1cc(/C(CC(c2ccc(C(F)(F)F)cc2)c2ccc(F)cc2F)=N/O)ccn1 (stereo not shown) [Example 442, 3-(2,4-Difluoro-phenyl)-1-(2-methyl-pyridin-4-yl)-3-(4-trifluoromethyl-phenyl)-propan-1-one oxime] | 109 nM
4 | Cc1cc(/C(C[C@H](c2ccc(C3CN(S(N)(=O)=O)C3)cc2)c2ccccc2C)=N/O)ccn1 [Example 485, (R,E)-3-(4-(3-(Hydroxyimino)-3-(2-methylpyridin-4-yl)-1-o-tolylpropyl)phenyl)azetidine-1-sulfonamide] | 21 nM
5 | COCCc1nnc(-c2ccc([C@@H](C/C(=N\O)c3ccnc(C)c3)c3ccccc3C)cc2)o1 [Example 420, ((−), E)-3-{4-[5-(2-Methoxy-ethyl)[1,3,4]oxadiazol-2-yl]-phenyl}-1-(2-methyl-pyridin-4-yl)-3-o-tolyl-propan-1-one oxime] | 15 nM
6 | Cc1ccccc1C(CC(=NO)c1ccncc1)c1ccc(-c2ccc(S(C)(=O)=O)cc2)cc1 (racemic) [Example 33, 3-(4′-Methanesulfonyl-biphenyl-4-yl)-1-pyridin-4-yl-3-o-tolyl-propan-1-one oxime] | 47 nM
7 | [O-][n+]1ccc(/C(CC(c2ccccc2)c2ccc(Br)cc2)=N/O)cc1 (stereo not shown) [Example 15, (E)-3-(4-Bromo-phenyl)-1-(1-oxy-pyridin-4-yl)-3-phenyl-propan-1-one oxime] | 206 nM
8 | Cc1cc(/C(CC(c2ccccc2)c2ccccn2)=N/O)cc(C)n1 (stereo not shown) [Example 68, (E)-1-(2,6-Dimethyl-pyridin-4-yl)-3-phenyl-3-pyridin-2-yl-propan-1-one oxime] | 341 nM
9 | Cn1cc(/C(CC(CCCC(F)(F)F)c2ccc(Br)cc2)=N/O)ccc1=O (stereo not shown) [Example 175, 5-{3-(4-Bromo-phenyl)-7,7,7-trifluoro-1-[(E)-hydroxyimino]-heptyl}-1-methyl-1H-pyridin-2-one] | 1310 nM
10 | O=C(O)c1ccc(-c2ccc(C(C/C(=N\O)c3ccncc3)c3ccccc3)cc2)cc1 (stereo not shown) [Example 77, 4′-{3-[(E)-Hydroxyimino]-1-phenyl-3-pyridin-4-yl-propyl}-biphenyl-4-carboxylic acid] | 269 nM
11 | O/N=C(\CC(c1ccccc1)c1cccc(Br)c1)c1ccncc1 (stereo not shown) [Example 12, (E)-3-(3-Bromo-phenyl)-3-phenyl-1-pyridin-4-yl-propan-1-one oxime] | 92 nM
12 | Cc1cc(/C(CC(c2ccc(C(=O)NCCN3CCS(=O)(=O)CC3)cc2)c2ccc(F)cc2F)=N/O)ccn1 (stereo not shown) [Example 441, 4-[1-(2,4-Difluoro-phenyl)-3-[(E)-hydroxyimino]-3-(2-methyl-pyridin-4-yl)-propyl]-N-[2-(1,1-dioxo-1λ^6-thiomorpholin-4-yl)-ethyl]-benzamide] | 39 nM
13 | O/N=C(\CC(c1ccccc1)c1ccccc1)c1cc(Cl)nc(Cl)c1 [Example 72, (E)-1-(2,6-Dichloro-pyridin-4-yl)-3,3-diphenyl-propan-1-one oxime] | 221 nM
14 | COC(=O)c1ccc(-c2ccc(C(CC(=NO)c3ccnc(C)c3)c3ccccc3C)cc2)cc1Cl (racemic) [Example 83, 3-Chloro-4′-[3-[hydroxyimino]-3-(2-methyl-pyridin-4-yl)-1-o-tolyl-propyl]-biphenyl-4-carboxylic acid methyl ester] | 455 nM
15 | Cc1cc(/C(CC(c2ccc(-c3ccc(C(=O)O)cc3)cc2)c2ccc(Cl)cc2C)=N/O)ccn1 (single isomer, unassigned) [Example 396, (−)-4′-[1-(4-Chloro-2-methyl-phenyl)-3-[(E)-hydroxyimino]-3-(2-methyl-pyridin-4-yl)-propyl]-biphenyl-4-carboxylic acid; compound with triethylamine 1:0.7] | 29 nM
16 | COC(=O)c1ccc(-c2ccc(C(CC(=NO)c3ccnc(C)c3)c3ccccc3C)cc2)c(F)c1 (racemic) [Example 81, 2-Fluoro-4′-[3-[hydroxyimino]-3-(2-methyl-pyridin-4-yl)-1-o-tolyl-propyl]-biphenyl-4-carboxylic acid methyl ester] | 295 nM
17 | CN(C)c1ccc(C(CC(=NO)c2ccncc2)c2c[nH]c3ccccc23)cc1 (racemic) [Example 62, 3-(4-Dimethylamino-phenyl)-3-(1H-indol-3-yl)-1-pyridin-4-yl-propan-1-one oxime] | 2710 nM

The next lines start with the values.

Row | EC50 | SMILES
18 | 253 nM | Cn1cc(/C(CC(c2ccc(C(=O)NCCO)cc2)c2ccc(Cl)cc2F)=N/O)ccc1=O (stereo not shown) [Example 311, 4-[1-(4-Chloro-2-fluoro-phenyl)-3-[(E)-hydroxyimino]-3-(1-methyl-6-oxo-1,6-dihydro-pyridin-3-yl)-propyl]-N-(2-hydroxy-ethyl)-benzamide]
19 | 41 nM | Cc1cc(/C(C[C@H](c2ccc(CC(=O)O)cc2)c2ccc(Cl)cc2C)=N/O)ccn1 [Example 382, {4-[(R)-1-(4-Chloro-2-methyl-phenyl)-3-[(E)-hydroxyimino]-3-(2-methyl-pyridin-4-yl)-propyl]-phenyl}-acetic acid]
20 | 95 nM | Cc1cc(Cl)ccc1[C@H](C/C(=N\O)c1ccc(=O)n(C)c1)c1ccc(-c2ccc(C(=O)O)cc2)cc1 (single isomer, unassigned) [Example 393, (+)-4′-[1-(4-Chloro-2-methyl-phenyl)-3-[(E)-hydroxyimino]-3-(1-methyl-6-oxo-1,6-dihydro-pyridin-3-yl)-propyl]-biphenyl-4-carboxylic acid; compound with triethylamine 1:0.9]
21 | 130 nM | Cc1ccccc1C(C/C(=N\O)c1ccc(=O)n(C)c1)c1ccc(C(=O)NCC(O)C(F)(F)F)cc1 (stereo not shown) [Example 309, (E)-4-(3-(Hydroxyimino)-3-(1-methyl-6-oxo-1,6-dihydropyridin-3-yl)-1-o-tolylpropyl)-N-(3,3,3-trifluoro-2-hydroxypropyl)benzamide]
22 | 164 nM | COCCn1cc(/C(CC(c2ccc(S(C)(=O)=O)cc2)c2ccc(Cl)cc2C)=N/O)ccc1=O (stereo not shown) [Example 341, (E)-5-(3-(4-Chloro-2-methylphenyl)-1-(hydroxyimino)-3-(4-(methylsulfonyl)phenyl)-propyl)-1-(2-methoxyethyl)pyridin-2(1H)-one]
23 | 152 nM | Cn1cc(/C(C[C@@H](c2ccc(-c3ccc(C(=O)O)c(F)c3)cc2)c2ccc(Cl)cc2F)=N/O)ccc1=O (single isomer, unassigned) [Example 464, 4′-[(+)-1-(4-Chloro-2-fluoro-phenyl)-3-[(E)-hydroxyimino]-3-(1-methyl-6-oxo-1,6-dihydro-pyridin-3-yl)-propyl]-3-fluoro-biphenyl-4-carboxylic acid]
24 | 2520 nM | CC(=O)Nc1cccc(C(C/C(=N\O)c2ccc(=O)n(C)c2)c2ccc(Cl)cc2F)c1 (stereo not shown) [Example 319, (E)-N-(3-(1-(4-Chloro-2-fluorophenyl)-3-(hydroxyimino)-3-(1-methyl-6-oxo-1,6-dihydropyridin-3-yl)propyl)phenyl)acetamide]
25 | 10 nM | Cn1cc(/C(CC(c2ccc(CO)cc2)c2ccc(Cl)cc2F)=N/O)ccc1=O (stereo not shown) [Example 317, (E)-5-(3-(4-chloro-2-fluorophenyl)-1-(hydroxyimino)-3-(4-(hydroxymethyl)phenyl)propyl)-1-methylpyridin-2(1H)-one]
26 | 41 nM | Cc1ccccc1[C@H](C/C(=N\O)c1ccc(=O)n(C)c1)c1ccc(N2CCC(C(=O)O)CC2)cc1 [Example 497, Sodium (R,E)-1-(4-(3-(Hydroxyimino)-3-(1-methyl-6-oxo-1,6-dihydropyridin-3-yl)-1-o-tolylpropyl)phenyl)piperidine-4-carboxylate]
27 | 11 nM | Cc1cc(Cl)ccc1C(C/C(=N\O)c1ccc(=O)n(C)c1)c1ccc(OCCO)c(F)c1 (stereo not shown) [Example 328, 5-{3-(4-Chloro-2-methyl-phenyl)-3-[3-fluoro-4-(2-hydroxy-ethoxy)-phenyl]-1-[(E)-hydroxyimino]-propyl}-1-methyl-1H-pyridin-2-one]
28 | 405 nM | CC(=O)N1CCC(c2ccc([C@@H](C/C(=N\O)c3ccc(=O)n(C)c3)c3ccccc3C)cc2)CC1 [Example 508, (R,E)-5-(3-(4-(1-Acetylpiperidin-4-yl)phenyl)-1-(hydroxyimino)-3-o-tolylpropyl)-1-methylpyridin-2(1H)-one]
29 | 20 nM | Cn1cc(/C(CC(c2ccc(Br)cc2)c2ccccc2F)=N/O)ccc1=O (stereo not shown) [Example 243, (E)-5-(3-(4-Bromophenyl)-3-(2-fluorophenyl)-1-(hydroxyimino)propyl)-1-methylpyridin-2(1H)-one]
30 | 3750 nM | Cc1cc(Cl)ccc1C(C/C(=N\O)c1ccc(=O)n(CC(N)=O)c1)c1ccc(S(C)(=O)=O)cc1 (stereo not shown) [Example 343, (E)-2-(5-(3-(4-Chloro-2-methylphenyl)-1-(hydroxyimino)-3-(4-(methylsulfonyl)-phenyl)propyl)-2-oxopyridin-1(2H)-yl)acetamide]
31 | 4080 nM | Cc1ccccc1C(C/C(=N\O)c1ccc(=O)n(C)c1)c1ccc(OCC(=O)O)cc1F (stereo not shown) [Example 221, {3-Fluoro-4-[3-[(E)-hydroxyimino]-3-(1-methyl-6-oxo-1,6-dihydro-pyridin-3-yl)-1-o-tolyl-propyl]-phenoxy}-acetic acid]
